In patent US7202244B2, “Chk-1 inhibitors” (Millennium Pharmaceuticals, Inc., priority 2002, dated 2007):
pIC50: −log10 of the molar value.

What was measured:
[1] = target: T1, GST-Chk1 (recombinant human Chk1) (Homo sapiens, UniProt O14757); test: Chk1 FlashPlate kinase assay; assay type: biochemical; details: 1 uM ATP
T1 construct: made in house; host or cells: insect cells (Bac-to-Bac baculovirus system)
T1 sequence (O14757 1-476): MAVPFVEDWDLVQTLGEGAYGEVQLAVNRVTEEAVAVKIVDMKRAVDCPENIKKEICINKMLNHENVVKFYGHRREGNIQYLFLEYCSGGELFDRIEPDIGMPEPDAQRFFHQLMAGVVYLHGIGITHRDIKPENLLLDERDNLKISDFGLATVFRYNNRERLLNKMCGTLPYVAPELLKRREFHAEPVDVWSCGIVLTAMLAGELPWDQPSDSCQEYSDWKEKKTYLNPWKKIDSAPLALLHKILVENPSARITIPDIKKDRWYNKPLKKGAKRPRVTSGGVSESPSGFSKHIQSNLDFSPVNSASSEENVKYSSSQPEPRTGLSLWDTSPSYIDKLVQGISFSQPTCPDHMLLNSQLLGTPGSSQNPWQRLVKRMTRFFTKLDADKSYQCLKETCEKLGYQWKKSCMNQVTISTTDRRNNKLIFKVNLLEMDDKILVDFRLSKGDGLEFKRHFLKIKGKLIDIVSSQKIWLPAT
Method: Recombinant human Chk1 was expressed as a fusion protein with glutathione S-transferase at the amino-terminus (GST-Chk1) using standard baculovirus vectors and (Bac-to-Bac®) insect cell expression system purchased from GIBCO™ Invitrogen. Recombinant protein expressed in insect cells was purified using glutathione sepharose (Amersham Biotech) using standard procedures described by the manufacturer.
Chk1 FlashPlate® Kinase Assay:
Reactions were incubated for 30 minutes at room temperature, terminated with 50 ul of 50 mM EDTA and 90 ul were transferred to streptavidin-coated FlashPlates® (NEN) and incubated for 1 hour at room temperature. Plates were washed with phosphate buffered salaine containing 0.01% Tween-20 and 10 mM sodium pyrophosphate. Plates were dried, sealed with Topseal™ (NEN) and amount of ^33P incorporated into the peptide substate measure using a Packard Topcount® NXT™ scintillation counter with standard settings.
Compounds of the present invention were tested in the Chk1 FlashPlate® kinase assay described above.

[2] = target: T2, CHK-1 (Homo sapiens, UniProt O14757); test: IC50 for the test compound versus CHK-1 (Table 2, assay format not stated); assay type: biochemical
T2 sequence (O14757 1-476): T1 sequence (O14757 1-476)

[3] = tested on: HT29, HCT116 or other cells; test: WST assay: enhancement of cell killing by DNA damaging agents; assay type: cell-based; details: shift of 1 = no shift
Method: HT29, HCT116 (5000 cells/well) or other cells were seeded (75 ul) to 96 well clear bottom plates at densities which provide linear growth curves for 72 hours. Cells were cultured under sterile conditions in appropriate media and for HT29 & HCT116 this media was McCoy's 5A containing 10% Fetal Bovine Serum (FBS). Following the initial seeding of cells they are incubated at 37° C., 5% CO2 from 17 to 24 hours at which time the appropriate DNA damaging agents (camptothecins, 5-fluorouracil and etoposid) are added at increasing concentrations to a point which is capable of causing at least 80% cell killing with in 48 hours. Final volume of all DNA damaging agent & compound additions was 25 ul and assays contained <1% DMSO final. At the same time as DNA Damaging agent addition, Chk1 inhibitor was added at fixed concentrations to each DNA damaging agent titration to observe enhancement of cell killing. In addition, toxicity of each Chk1 inhibitor alone was observed. By doing this over a range of Chk1 inhibitor concentrations we were able to identify compounds which maximally enhance (2–30 fold) cell killing by each DNA damaging agent and generated ≦80% cell killing by the compound alone. Cell viability/cell killing under the conditions described above was determined by addition WST reagent (Roche) according to the manufacturer at 47 hours following DNA damage & Chk1 inhibitor addition and following a 3.5 hour or 2.5 hour incubation at 37 C, 5% CO2, OD450 was measured.

Cc1cnc(NC(=O)Nc2cc(Cl)ccc2OCCCN(C)C)cn1 [Example 25, 1-[5-Chloro-2-(3-dimethylamino-propoxy)-phenyl]-3-(5-methyl-pyrazin-2-yl)-urea]
pIC50 [1]: > 7.00
pIC50 [2]: 8.35
Shift 156 nM ([3]; Chk1 inhibitor fixed at 156 nM with DNA damaging agent titration): 1.1
Shift 313 nM ([3]; Chk1 inhibitor fixed at 313 nM with DNA damaging agent titration): 1.7
Shift 625 nM ([3]; Chk1 inhibitor fixed at 625 nM with DNA damaging agent titration): 2.5
Shift 1.25 μM ([3]; Chk1 inhibitor fixed at 1.25 μM with DNA damaging agent titration): 3.3
Shift 2.5 μM ([3]; Chk1 inhibitor fixed at 2.5 μM with DNA damaging agent titration): 4.4
